Laboratory results from patent US10617693B2, “Methods of treating and/or preventing actinic keratosis” (Athenex, Inc., priority 2017, dated 2020).

Test system: subjects with AK on the dorsal forearm
Experiment: Phase 1 study KX01-AK-01-US: local skin reactions (investigator score 0 none to 4 severe; subject score 0 none to 3 severe) and adverse events
[1] = Cohort 1: 0.5 mg/25 cm^2 QD x3 days, N=4
[2] = Cohort 2: 2 mg/100 cm^2 QD x3 days, N=10
[3] = Cohort 3: 0.5 mg/25 cm^2 QD x5 days, N=8
[4] = Cohort 4: 2 mg/100 cm^2 QD x5 days, N=8

Protocol: A Phase 1, single-center, safety, tolerability and pharmacokinetic study of KX-01 was performed on subjects with AK on the dorsal forearm. This was an open-label, uncontrolled, nonrandomized, sequential group clinical trial conducted at a single investigational center in the United States. The primary objectives of the study were to assess the safety, tolerability and pharmacokinetics of KX-01 in subjects with AK. The secondary objective was to evaluate the activity of KX-01 administered topically to the dorsal forearm in subjects with AK.
KX-01 was administered topically on treatment days. All subjects were monitored for safety and tolerability that included LSRs, AEs, vital signs, clinical laboratory tests, ECGs, and physical examinations at baseline and at pre-defined time points during treatment and follow-up on days 1, 2, 3, 4, 5, 8, 10, 17, 31 and 45.
LSRs (erythema, flaking/scaling, crusting, swelling, vesiculation/pustulation, erosion/ulceration) were assessed by the investigator or trained designee using a 4-point scale according to the protocol. The subject's assessment of the symptoms (stinging/burning, pruritus) associated with irritation of the treatment area was evaluated on a 4-point scale (0=none, 1=mild, 2=moderate, 3=severe). Subjects were queried for spontaneously reported AEs at each study visit before assessment of LSRs. LSRs and AEs were reported separately. All LSRs were to be followed to resolution or stabilization.

O=C(Cc1ccc(-c2ccc(OCCN3CCOCC3)cc2)cn1)NCc1ccccc1 [KX-01]
7: Crusting max score 1, number of subjects [3] | Erosions/ulcers max score 0, number of subjects [4]
1: Erythema max score 2, number of subjects [1] | Erythema max score 3, number of subjects [1] | Flaking/scaling max score 3, number of subjects [1] | Pruritus (subject-assessed) max score 1, number of subjects [1] | Stinging (subject-assessed) max score 1, number of subjects [1] | Burning (subject-assessed) max score 2, number of subjects [2] | Flaking/scaling max score 0, number of subjects [2] | Flaking/scaling max score 2, number of subjects [2] | Burning (subject-assessed) max score 2, number of subjects [3] | Crusting max score 0, number of subjects [3] | Pruritus (subject-assessed) max score 2, number of subjects [3] | Pruritus (subject-assessed) max score 3, number of subjects [3] | Stinging (subject-assessed) max score 1, number of subjects [3] | Stinging (subject-assessed) max score 2, number of subjects [3] | Swelling max score 1, number of subjects [3] | Erosions/ulcers max score 1, number of subjects [4] | Swelling max score 0, number of subjects [4] | Swelling max score 2, number of subjects [4]
4: Burning (subject-assessed) max score 0, number of subjects [1] | Crusting max score 0, number of subjects [1] | Erosions/ulcers max score 0, number of subjects [1] | Swelling max score 0, number of subjects [1] | Vesicles/pustules max score 0, number of subjects [1] | Pruritus (subject-assessed) max score 0, number of subjects [2] | Burning (subject-assessed) max score 0, number of subjects [3] | Erythema max score 2, number of subjects [3] | Flaking/scaling max score 3, number of subjects [3] | Pruritus (subject-assessed) max score 1, number of subjects [3] | Swelling max score 0, number of subjects [3] | Burning (subject-assessed) max score 0, number of subjects [4] | Burning (subject-assessed) max score 1, number of subjects [4] | Crusting max score 0, number of subjects [4] | Crusting max score 1, number of subjects [4] | Erythema max score 2, number of subjects [4] | Flaking/scaling max score 2, number of subjects [4] | Pruritus (subject-assessed) max score 1, number of subjects [4] | Pruritus (subject-assessed) max score 2, number of subjects [4]
5: Crusting max score 0, number of subjects [2] | Crusting max score 1, number of subjects [2] | Stinging (subject-assessed) max score 0, number of subjects [4]
Four of 30: Subjects reporting treatment emergent adverse events (TEAEs) (all cohorts)
No subject: Subjects with a vesicle or pustule (all cohorts) | Subjects with an LSR score of 4 in any category (all cohorts)
primarily mild: Nature of local skin reactions (human, in vivo)
mild to moderate: Severity of TEAEs (all TEAEs)
≤ 45 days: Day by which application-site symptoms resolved (human, in vivo)
~5 days: Day LSRs tended to peak (3-day treatment cohorts (Cohorts 1 and 2))
30: Subjects with LSRs as assessed by the Investigator (all cohorts, 30 subjects)
acceptable: Local tolerability (all cohorts)
~10 days: Day LSRs tended to peak (5-day treatment cohorts (Cohorts 3 and 4))
8: Stinging (subject-assessed) max score 0, number of subjects [2] | Swelling max score 0, number of subjects [2] | Erosions/ulcers max score 0, number of subjects [3] | Vesicles/pustules max score 0, number of subjects [3] | Vesicles/pustules max score 0, number of subjects [4]
0: Burning (subject-assessed) max score 1, number of subjects [1] | Burning (subject-assessed) max score 2, number of subjects [1] | Burning (subject-assessed) max score 3, number of subjects [1] | Crusting max score 1, number of subjects [1] | Crusting max score 2, number of subjects [1] | Crusting max score 3, number of subjects [1] | Crusting max score 4, number of subjects [1] | Erosions/ulcers max score 1, number of subjects [1] | Erosions/ulcers max score 2, number of subjects [1] | Erosions/ulcers max score 3, number of subjects [1] | Erosions/ulcers max score 4, number of subjects [1] | Erythema max score 0, number of subjects [1] | Erythema max score 4, number of subjects [1] | Flaking/scaling max score 0, number of subjects [1] | Flaking/scaling max score 2, number of subjects [1] | Flaking/scaling max score 4, number of subjects [1] | Pruritus (subject-assessed) max score 2, number of subjects [1] | Pruritus (subject-assessed) max score 3, number of subjects [1] | Stinging (subject-assessed) max score 2, number of subjects [1] | Stinging (subject-assessed) max score 3, number of subjects [1] | Swelling max score 1, number of subjects [1] | Swelling max score 2, number of subjects [1] | Swelling max score 3, number of subjects [1] | Swelling max score 4, number of subjects [1] | Vesicles/pustules max score 1, number of subjects [1] | Vesicles/pustules max score 2, number of subjects [1] | Vesicles/pustules max score 3, number of subjects [1] | Vesicles/pustules max score 4, number of subjects [1] | Burning (subject-assessed) max score 3, number of subjects [2] | Crusting max score 2, number of subjects [2] | Crusting max score 3, number of subjects [2] | Crusting max score 4, number of subjects [2] | Erosions/ulcers max score 1, number of subjects [2] | Erosions/ulcers max score 2, number of subjects [2] | Erosions/ulcers max score 3, number of subjects [2] | Erosions/ulcers max score 4, number of subjects [2] | Erythema max score 0, number of subjects [2] | Erythema max score 4, number of subjects [2] | Flaking/scaling max score 4, number of subjects [2] | Pruritus (subject-assessed) max score 2, number of subjects [2] | Pruritus (subject-assessed) max score 3, number of subjects [2] | Stinging (subject-assessed) max score 2, number of subjects [2] | Stinging (subject-assessed) max score 3, number of subjects [2] | Swelling max score 2, number of subjects [2] | Swelling max score 3, number of subjects [2] | Swelling max score 4, number of subjects [2] | Vesicles/pustules max score 1, number of subjects [2] | Vesicles/pustules max score 2, number of subjects [2] | Vesicles/pustules max score 3, number of subjects [2] | Vesicles/pustules max score 4, number of subjects [2] | Burning (subject-assessed) max score 3, number of subjects [3] | Crusting max score 2, number of subjects [3] | Crusting max score 3, number of subjects [3] | Crusting max score 4, number of subjects [3] | Erosions/ulcers max score 1, number of subjects [3] | Erosions/ulcers max score 2, number of subjects [3] | Erosions/ulcers max score 3, number of subjects [3] | Erosions/ulcers max score 4, number of subjects [3] | Erythema max score 0, number of subjects [3] | Erythema max score 4, number of subjects [3] | Flaking/scaling max score 0, number of subjects [3] | Flaking/scaling max score 4, number of subjects [3] | Stinging (subject-assessed) max score 3, number of subjects [3] | Swelling max score 2, number of subjects [3] | Swelling max score 4, number of subjects [3] | Vesicles/pustules max score 1, number of subjects [3] | Vesicles/pustules max score 2, number of subjects [3] | Vesicles/pustules max score 3, number of subjects [3] | Vesicles/pustules max score 4, number of subjects [3] | Burning (subject-assessed) max score 2, number of subjects [4] | Burning (subject-assessed) max score 3, number of subjects [4] | Crusting max score 2, number of subjects [4] | Crusting max score 3, number of subjects [4] | Crusting max score 4, number of subjects [4] | Erosions/ulcers max score 2, number of subjects [4] | Erosions/ulcers max score 3, number of subjects [4] | Erosions/ulcers max score 4, number of subjects [4] | Erythema max score 0, number of subjects [4] | Erythema max score 4, number of subjects [4] | Flaking/scaling max score 0, number of subjects [4] | Flaking/scaling max score 4, number of subjects [4] | Pruritus (subject-assessed) max score 0, number of subjects [4] | Pruritus (subject-assessed) max score 3, number of subjects [4] | Stinging (subject-assessed) max score 2, number of subjects [4] | Stinging (subject-assessed) max score 3, number of subjects [4] | Swelling max score 3, number of subjects [4] | Swelling max score 4, number of subjects [4] | Vesicles/pustules max score 1, number of subjects [4] | Vesicles/pustules max score 2, number of subjects [4] | Vesicles/pustules max score 3, number of subjects [4] | Vesicles/pustules max score 4, number of subjects [4]
10: Erosions/ulcers max score 0, number of subjects [2] | Vesicles/pustules max score 0, number of subjects [2] | Number of TEAEs (all cohorts)
2 days: Day LSRs appeared (in general)
2: Erythema max score 1, number of subjects [1] | Erythema max score 2, number of subjects [2] | Erythema max score 3, number of subjects [2] | Flaking/scaling max score 1, number of subjects [2] | Stinging (subject-assessed) max score 1, number of subjects [2] | Swelling max score 1, number of subjects [2] | Erythema max score 1, number of subjects [3] | Erythema max score 3, number of subjects [3] | Flaking/scaling max score 1, number of subjects [3] | Flaking/scaling max score 2, number of subjects [3] | Pruritus (subject-assessed) max score 0, number of subjects [3] | Erythema max score 1, number of subjects [4] | Erythema max score 3, number of subjects [4] | Flaking/scaling max score 1, number of subjects [4] | Flaking/scaling max score 3, number of subjects [4]
3: Flaking/scaling max score 1, number of subjects [1] | Pruritus (subject-assessed) max score 0, number of subjects [1] | Stinging (subject-assessed) max score 0, number of subjects [1] | Burning (subject-assessed) max score 1, number of subjects [2] | Burning (subject-assessed) max score 1, number of subjects [3] | Swelling max score 3, number of subjects [3] | Stinging (subject-assessed) max score 1, number of subjects [4]
Fifteen: Subjects with erythema and/or flaking/scaling score 1 or 2 at day 45 (of 30 subjects)
6: Burning (subject-assessed) max score 0, number of subjects [2] | Erythema max score 1, number of subjects [2] | Flaking/scaling max score 3, number of subjects [2] | Pruritus (subject-assessed) max score 1, number of subjects [2] | Stinging (subject-assessed) max score 0, number of subjects [3] | Swelling max score 1, number of subjects [4]
